Assay results from patent US10191057B2, “Methods of diagnosing, classifying and treating endometrial cancer and precancer” (THE TRANSLATIONAL GENOMICS RESEARCH INSTITUTE, priority 2007, dated 2019).
pIC50: −log10 of the molar value.

Experiments:
MFE296 cells [1] = experiment: Cell cycle analysis, MFE296; type: cell-based, human; details: MFE296, data not shown
Protocol: (§1) Cells were plated at a density of 4×10^5 cells per well in a 6 well plate. The next day, cells were infected with lentiviral stocks in the presence of 6 μg/ml polybrene (Sigma-Aldrich, St. Louis, Mo.). Empty vector and nonsilencing shRNA infections were used as controls for each experiment. […] Growth Inhibition Assay Twenty-four hours after infection, cells were trypsinized and plated in 96 well plates in full growth medium at a density of 5,000 cells per well, in triplicate, and proliferation assessed using the Sulforhodamine B (SRB) assay (Sigma-Aldrich, St. Louis, Mo.). […] The protein-bound dye was dissolved in 10 mM Tris base solution, and absorbance measured at 510 nm. […] 48 hours after transfection, floating and attached cells were collected, washed in cold PBS, resuspended in Annexin binding buffer (10 mM Hepes (pH 7.4), 140 mM NaCl, 2.5 mM CaCl2), stained with 500 ng/mL annexinV-FITC and 1 μg/mL propidium iodide (Sigma-Aldrich, St. Louis, Mo.), and analyzed for annexin positive cells using a CyAn ADP flow cytometer and Summit software, version 4.3 (Dako Cytomation, Carpinteria, Calif.). […] 72 hours later, cells were stained with propidium iodide as described {Krishan, 1975 #28} and analyzed by flow cytometry. […] FGFR2 expression was detected with BekC17 antibody (Santa Cruz Biotechnology, Inc., Santa Cruz, Calif.). […]

VEGFR2 = VEGFR2 (Homo sapiens, UniProt P35968); details: cited from earlier work
p38 = experiment: Western blot, activation of p38; type: cell-based, human; details: 10% FBS
Protocol: (§2) Cells were plated at a density of 4×10^5 cells per well in a 6 well plate. The next day, cells were infected with lentiviral stocks in the presence of 6 μg/ml polybrene (Sigma-Aldrich, St. Louis, Mo.). Empty vector and nonsilencing shRNA infections were used as controls for each experiment. […] Growth Inhibition Assay Twenty-four hours after infection, cells were trypsinized and plated in 96 well plates in full growth medium at a density of 5,000 cells per well, in triplicate, and proliferation assessed using the Sulforhodamine B (SRB) assay (Sigma-Aldrich, St. Louis, Mo.). At the indicated time points, wells were fixed with 10% (wt/vol) trichloroacetic acid, stained with SRB for 30 min, and washed with 1% (vol/vol) acetic acid. The protein-bound dye was dissolved in 10 mM Tris base solution, and absorbance measured at 510 nm. […] Annexin V-FITC Labeling of Apoptotic Cells Annexin V-FITC staining was used to measure phosphatidylserine exposure on cells undergoing apoptosis, according to the manufacturer's instructions (BioVision, Inc. Mountain View, Calif.). […] 2.5×10^5 cells were plated per well in a 6 well plate. Twenty-four hours later, cells were transfected with 25 nM nonsilencing (NS) siRNA or FGFR2 siRNA X2 using Lipofectamine 2000 transfection reagent. The siRNA duplex was allowed to form a complex with Lipofectamine 2000 for 20 minutes at room temperature, and transfection carried out at 37° C. for 24 hours. 48 hours after transfection, floating and attached cells were collected, washed in cold PBS, resuspended in Annexin binding buffer (10 mM Hepes (pH 7.4), 140 mM NaCl, 2.5 mM CaCl2), stained with 500 ng/mL annexinV-FITC and 1 μg/mL propidium iodide (Sigma-Aldrich, St. Louis, Mo.), and analyzed for annexin positive cells using a CyAn ADP flow cytometer and Summit software, version 4.3 (Dako Cytomation, Carpinteria, Calif.). […] Cell Cycle Analysis Cells were plated at a density of 1×10^5 cells per well in a 6 well plate. […] 72 hours later, cells were stained with propidium iodide as described {Krishan, 1975 #28} and analyzed by flow cytometry. Cell cycle analysis was performed using ModFit software (Verity Software House, Inc. Topsham, Me.). Western Blot Analysis Cells were plated in 60 mm^2 dishes at a density of 2×10^6 cells per dish. […] Cells were washed in ice cold PBS, lysed in kinase buffer [20 mM Hepes pH7.4, 2 mM EGTA, 1% Triton X100, 10% glycerol, 1 mM Na3VO4, 1 mM NaF, 100 uM AEBSF, and 1 tablet/10 mL of Mini Complete Protease Inhibitor (Roche Molecular Biochemicals, Indianapolis, Ind.)], briefly sonicated on ice, and protein concentrations estimated using Quick Start Bradford Reagent with bovine gamma-globulin standards (Bio-Rad Laboratories, Hercules, Calif.). Equal amounts of protein were separated by SDS-PAGE on 4-12% gradient gels and transferred to polyvinylidene difluoride membranes (Invitrogen, Carlsbad, Calif.). Membranes were immunoblotted with antibodies to phosphorylated and total AKT, ERK1/2, p38, STAT-3 and STAT-5, PLCγ and total PTEN (Cell Signaling Technology, Beverly, Mass.). FGFR2 expression was detected with BekC17 antibody (Santa Cruz Biotechnology, Inc., Santa Cruz, Calif.). Horseradish peroxidase-conjugated goat anti-mouse or anti-rabbit secondary antibodies (Biomeda, Foster City, Calif.), were used, followed by chemiluminescence staining. For shRNA studies, lysates were collected 48 hours after shRNA transduction and processed as described above. Statistical Analysis

MFE296 cells [2] = experiment: Annexin V-FITC labeling of apoptotic cells, MFE296; type: cell-based, human; details: MFE296, data not shown
Protocol: as §1

AKT = experiment: Western blot, activation of AKT; type: cell-based, human; details: for AKT activation: HEC1A
Protocol: as §2

STAT3 = experiment: Western blot, activation of STAT3; type: cell-based, human; details: 10% FBS
Protocol: as §2

[3] = test system: myeloma cells with an activating t(4; 14) translocation and activating mutations in FGFR3; details: t(4; 14) translocation and activating FGFR3 mutations; cited from earlier work
[4] = test system: AN3CA cells (N550K FGFR2 mutation); experiment: SRB cell proliferation/viability assay, AN3CA; type: cell-based; details: Homo sapiens, AN3-CA, read-out: PD173074 IC50, cell viability, SRB assay 72 hours after addition, full growth medium
[5] = test system: Ishikawa cells (wildtype FGFR2); experiment: SRB cell viability assay, Ishikawa; type: cell-based; details: Homo sapiens, read-out: PD173074 IC50, cell viability, SRB assay 72 hours after addition, full growth medium
Protocol: as §1

AN3CA cells [6] = experiment: Cell cycle analysis (propidium iodide, flow cytometry), AN3CA; type: cell-based, human; details: 1 μM, 72 hrs
Protocol: as §1

[7] = test system: MFE296 cells (N550K FGFR2 mutation); experiment: SRB cell proliferation/viability assay, MFE296; type: cell-based; details: Homo sapiens, MFE-296, read-out: PD173074 IC50, cell viability; MFE296, SRB assay 72 hours after addition, full growth medium
Protocol: as §1

PLCγ = experiment: Western blot, activation of PLCγ; type: cell-based, human; details: following PD173074 treatment, data not shown
Protocol: as §1

[8] = test system: Hec1A (FGFR2 wild type) xenograft tumors; experiment: Hec1A xenograft tumor growth; details: 25 mg/kg twice daily by oral gavage
Protocol: (§3) Briefly, mice were inoculated subcutaneously with 0.1 ml of a 50% RPMI/50% Matrigel™ mixture containing a suspension of tumor cells (1×10^7 cells/mouse). […] Tumor weight measurements were recorded three times a week.

[9] = test system: AN3CA (FGFR2 N550K mutant) xenograft tumors; experiment: AN3CA xenograft tumor growth; details: 25 mg/kg twice daily by oral gavage
Protocol: as §3

ERK1/2 = experiment: Western blot, activation of ERK1/2; type: cell-based, human
Protocol: as §2

AN3CA cells [10] = experiment: Annexin V-FITC labeling of apoptotic cells, AN3CA; type: cell-based, human
Protocol: as §1

[11] = test system: HEC1A cells (wildtype FGFR2); experiment: SRB cell viability assay, HEC1A; type: cell-based; details: Homo sapiens, HEC-1-A, read-out: PD173074 IC50, cell viability, SRB assay 72 hours after addition, full growth medium
Protocol: as §1

[12] = test system: RL952 cells (wildtype FGFR2); experiment: SRB cell viability assay, RL952; type: cell-based; details: Homo sapiens, RL95-2, read-out: PD173074 IC50, cell viability; RL952, SRB assay 72 hours after addition, full growth medium
Protocol: as §1

[13] = test system: KLE cells (wildtype FGFR2); experiment: SRB cell viability assay, KLE; type: cell-based; details: Homo sapiens, read-out: PD173074 IC50, cell viability, SRB assay 72 hours after addition, full growth medium
[14] = AN3CA, increasing concentrations, 3 hours
[15] = HEC1A, increasing concentrations, 3 hours
[16] = MFE296, increasing concentrations, 3 hours
[17] = AN3CA, 1 μM, 0 to 72 hours, 0.2% FBS
[18] = AN3CA, 1 μM, 0 to 72 hours, 10% FBS
[19] = AN3CA, increasing concentrations, 3 hours, 10% FBS
[20] = MFE296, 1 μM, 0 to 72 hours, 0.2% FBS
[21] = MFE296, 1 μM, 0 to 72 hours, 10% FBS
[22] = MFE296, increasing concentrations, 3 hours, 10% FBS

Sequence of VEGFR2 (P35968 20-1356, species assumed): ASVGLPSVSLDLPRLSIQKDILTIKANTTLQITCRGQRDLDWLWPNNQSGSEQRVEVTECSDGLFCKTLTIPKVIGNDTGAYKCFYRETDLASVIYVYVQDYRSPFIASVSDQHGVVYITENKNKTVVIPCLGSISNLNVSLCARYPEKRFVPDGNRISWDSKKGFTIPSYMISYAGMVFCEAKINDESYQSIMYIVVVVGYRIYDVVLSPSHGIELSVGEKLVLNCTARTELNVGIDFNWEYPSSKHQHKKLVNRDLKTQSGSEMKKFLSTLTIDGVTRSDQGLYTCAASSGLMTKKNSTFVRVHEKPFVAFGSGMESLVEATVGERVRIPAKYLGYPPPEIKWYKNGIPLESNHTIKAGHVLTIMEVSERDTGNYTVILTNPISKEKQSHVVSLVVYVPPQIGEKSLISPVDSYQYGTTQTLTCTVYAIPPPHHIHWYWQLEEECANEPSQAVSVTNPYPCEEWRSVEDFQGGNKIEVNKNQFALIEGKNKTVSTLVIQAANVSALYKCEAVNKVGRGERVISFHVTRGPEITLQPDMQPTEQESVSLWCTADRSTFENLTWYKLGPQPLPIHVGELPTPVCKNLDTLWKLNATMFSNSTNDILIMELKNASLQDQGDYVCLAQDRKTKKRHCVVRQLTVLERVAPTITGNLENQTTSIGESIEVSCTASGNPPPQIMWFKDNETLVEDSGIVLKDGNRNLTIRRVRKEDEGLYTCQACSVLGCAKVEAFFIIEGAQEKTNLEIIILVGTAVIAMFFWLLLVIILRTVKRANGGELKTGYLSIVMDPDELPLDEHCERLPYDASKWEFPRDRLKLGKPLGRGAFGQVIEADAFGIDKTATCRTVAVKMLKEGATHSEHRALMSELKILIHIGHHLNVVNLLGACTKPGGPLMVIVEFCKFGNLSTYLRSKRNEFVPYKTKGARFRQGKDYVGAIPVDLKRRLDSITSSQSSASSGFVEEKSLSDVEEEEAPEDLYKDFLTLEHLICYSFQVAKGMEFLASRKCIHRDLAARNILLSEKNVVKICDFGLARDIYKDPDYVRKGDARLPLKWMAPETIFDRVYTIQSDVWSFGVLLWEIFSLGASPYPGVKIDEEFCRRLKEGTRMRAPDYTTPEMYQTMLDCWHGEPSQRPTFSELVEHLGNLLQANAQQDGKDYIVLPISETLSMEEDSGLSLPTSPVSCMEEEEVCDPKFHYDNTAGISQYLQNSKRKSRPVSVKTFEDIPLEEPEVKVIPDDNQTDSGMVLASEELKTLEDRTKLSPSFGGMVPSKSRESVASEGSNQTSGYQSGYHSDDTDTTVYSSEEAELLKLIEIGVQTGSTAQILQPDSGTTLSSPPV

## CCN(CC)CCCCNc1ncc2cc(-c3cc(OC)cc(OC)c3)c(NC(=O)NC(C)(C)C)nc2n1 [PD173074]
MFE296 cells [1]
  cell cycle effect: induced cell cycle arrest
VEGFR2
  pIC50: ~7.00
p38; AN3CA, 1 μM, 0 to 72 hours
  p38 activation: no effect
p38; [14]
  p38 activation: no effect
p38; HEC1A, 1 μM, 0 to 72 hours
  p38 activation: no effect
p38; [15]
  p38 activation: no effect
p38; MFE296, 1 μM, 0 to 72 hours
  p38 activation: no effect
p38; [16]
  p38 activation: no effect
MFE296 cells [2]
  Annexin V staining: did not result in enhanced Annexin V staining
AKT; [17]
  AKT phosphorylation: modest suppression of AKT phosphorylation
AKT; [18]
  AKT phosphorylation: partial suppression of AKT phosphorylation
AKT; [19]
  AKT phosphorylation: modest suppression of AKT phosphorylation
AKT; 1 μM, 0 to 72 hours, 0.2% FBS
  AKT activation: no effect
AKT; 1 μM, 0 to 72 hours, 10% FBS
  AKT activation: no effect
AKT; increasing concentrations, 3 hours, 10% FBS
  AKT activation: no effect
AKT; [20]
  AKT phosphorylation: modest suppression of AKT phosphorylation
AKT; [21]
  AKT phosphorylation: partial suppression of AKT phosphorylation
AKT; [22]
  AKT phosphorylation: modest suppression of AKT phosphorylation
STAT3; AN3CA, 1 μM, 0 to 72 hours
  STAT3 activation: no effect
STAT3; [14]
  STAT3 activation: no effect
STAT3; HEC1A, 1 μM, 0 to 72 hours
  STAT3/5 activation: no effect
STAT3; [15]
  STAT3 activation: no effect
STAT3; MFE296, 1 μM, 0 to 72 hours
  STAT3 activation: no effect
STAT3; [16]
  STAT3 activation: no effect
[3]
  apoptosis in myeloma cells: induce apoptosis
[4]
  pIC50: 7.21
[5]
  pIC50: 5.53
AN3CA cells [6]
  cell cycle effect: G1 cell cycle arrest
[7]
  pIC50: 6.55
PLCγ
  PLCγ activation: no change
[8]
  effect on xenograft tumors: minimal effect
[9]
  growth of xenograft tumors: suppressed growth of all eight
  tumors with tumor regression: six of the eight
[9]; regressing tumors
  mean tumor shrinkage: 51%
ERK1/2; [17]
  ERK1/2 activation: suppression of ERK1/2 activation
ERK1/2; [18]
  ERK1/2 activation: suppression of ERK1/2 activation
ERK1/2; [19]
  ERK1/2 activation: suppression of ERK1/2 activation
ERK1/2; HEC1A, 1 μM, 0 to 72 hours, 0.2% FBS
  ERK1/2 activation: no effect
ERK1/2; HEC1A, 1 μM, 0 to 72 hours, 10% FBS
  ERK1/2 activation: no effect
ERK1/2; HEC1A, increasing concentrations, 3 hours, 10% FBS
  ERK1/2 activation: no effect
ERK1/2; [20]
  ERK1/2 activation: suppression of ERK1/2 activation
ERK1/2; [21]
  ERK1/2 activation: suppression of ERK1/2 activation
ERK1/2; [22]
  ERK1/2 activation: suppression of ERK1/2 activation
AN3CA cells [10]; 1 μM, 48, 72 or 96 hours
  Annexin-V staining compared to DMSO: increase in Annexin-V staining
AN3CA cells [10]; 1 μM, 96 hours after drug treatment
  cells undergoing apoptosis (Annexin V-FITC labeling): ~70%
[11]
  pIC50: < 5.52
[12]
  pIC50: < 6.00
[13]
  pIC50: < 6.00
